Reference: patent US6583334B1, “Ovariectomized mouse model for human menopause” (Board of Trustees operating Michigan State University, priority 2000, dated 2003)
Where “and” joins values, the source holds several entries; their conditions need not be identical. Equal entries are not always repeated. Entries after “also recorded” stand apart in the source; their conditions may differ. Where two headings read alike, the source gives them in different places.

Experiments:
[1] = tested on: progesterone receptor (PR); experiment: PR ligand binding assay, time course of E induction of PR; type: in vivo, BALB/c virgin mice; settings: for increase in PR levels: single injection of E
Procedure: Hormone- or control-treated mammary glands were analyzed for progesterone receptor (PR) levels using a dextran-coated charcoal ligand binding assay (Haslam, S. G., Endocrinology 195:789-795 (1979)). Tissue DNA was quantitated as previously described (Ceriotti, G., J Biol Chem 198:297-303 (1952)).

[2] = tested on: PR; experiment: PR immunohistochemistry/immunofluorescence after E; type: in vivo, mice
Text: A dissociation between E stimulation of cell proliferation and PR regulation in mouse mammary gland has previously been reported (Fendrick, J. L., et al., J Mammary Gland Biol Neoplasia 3:7-22 (1998)). Although E appears to mediate proliferation of epithelial cells indirectly via stroma, E acts directly in epithelial cells to increase PR levels (Haslam, S. Z., Endocrinol 122:860-867 (1988)). Thus, our observations of increased responsiveness to the proliferative effect, but decreased responsiveness to the PR regulatory effect of E indicate that mammary epithelial and stromal cells are affected differently by long-term OVX. To confirm this observation, we have also used immunohistochemical analysis to determine the percentage of PR positive cells and PR concentration per cell, using a fluorescein-conjugated secondary antibody detection system, similar to the ER immunofluorescence assay herein. […] Future studies are planned to determine the mechanistic basis of these different responses to OVX. A similar dissociation of estrogenic regulation of proliferation and PR level has recently been reported for normal human breast (Clark, R. B., et al., Cancer Res 57:4987-4991 (1997)). […] In contrast, since ER and PR do co-localize in the same cells, E appears to act directly to regulate PR in breast epithelial cells. […]

[3] = tested on: MCF-7 human breast carcinoma cell line; settings: cited from earlier work
[4] = Serum levels of E by radioimmunoassay; type: in vivo, BALB/c female mice; settings: female, BALB/c, mouse, 24 h after injection of 1 μg E at 5 wks post OVX, n=4, read-out: E serum level
Procedure: (§1) Ten-week-old or 9-12 month-old BALB/c female mice from our own colony were bilaterally ovariectomized (OVX) under Nembutal anesthesia 1 or 5 weeks prior to E treatment. […] Injection was chosen as the method of systemic administration to optimize precision and reproducibility of hormone dosage. Serum levels of E were determined after OVX and E injection by radioimmunoassay using a commercial kit (Diagnostic Products Corp., Los Angeles, Calif.) according to the suppliers instructions. […] Therefore, in all experiments except time course studies, mammary glands were analyzed at 72 h after E treatment for DNA histoautoradiogrpahy and at 96 h after E treatment for morphological analysis.

[5] = tested on: progesterone receptor (PR); experiment: Steroid hormone binding assay ([3H]R5020) for PR concentration after E; type: in vivo, BALB/c female mice
Procedure: To determine PR concentration, cytoplasmic extracts were prepared separately for mammary gland and uteri as described previously (Haslam, S. Z., et al., Endocrinol 108:825-830 (1981)). Mammary gland and uterine cytoplasmic extracts were incubated with a single saturating concentration of 20 nM [^3H]R5020 with 100-fold excess radioinert dexamethasone (for suppression of progestin binding to glucocorticoid receptors) or with 100-fold excess radioinert R5020. Specific binding was determined using a dextran-coated charcoal assay procedure as previously described (Haslam, S. Z., et al., Endocrinol 108:825-830(1981)). Tissue DNA was quantitated as previously described (Ceriotti, G., J Biol Chem 198:297-303 (1952)).

[6] = tested on: mammary gland; experiment: Mammary gland wholemount morphology after E in OVX mice; type: in vivo, BALB/c female mice
Procedure: as §1

[7] = tested on: mammary epithelial and stromal cells; experiment: DNA histoautoradiography (3H-thymidine labeling index) after E in OVX mice; type: in vivo, BALB/c female mice; settings: for maximum proliferative response, 5 wk vs 1 wk post OVX: dose response study
Procedure: Ten-week-old or 9-12 month-old BALB/c female mice from our own colony were bilaterally ovariectomized (OVX) under Nembutal anesthesia 1 or 5 weeks prior to E treatment. […] Injection was chosen as the method of systemic administration to optimize precision and reproducibility of hormone dosage.
At various times after E injection, animals received a single ip injection of [^3H]thymidine in a dosage of 2 μCi/g BW 1 h before sacrifice. The mammary glands were removed, fixed and processed as wholemounts followed by embedding and sectioning for histoautcradiographic analysis as described previously. Histological sections were examined at 400× magnification to determine the DNA labeling indices (LIs) of epithelial and stromal cells. […] In parallel, stromal cell LIs were determined for areas adjacent to and distal from duct ends. Adjacent areas were defined to be within […] of the duct end (i.e. in the same microscope field at 400× magnification) and the distal areas were defined to be more than 400 μm away from the duct end. A minimum of 10 individual structures were evaluated for each of 5-9 mice per experimental group.

[8] = tested on: mammary gland duct ends; experiment: Elvax implants of RU486 or ICI 182,780: duct end enlargement in E+P injected OVX mice; type: in vivo, BALB/c virgin mice; settings: for reduction of number of enlarged duct ends induced by E+P: implant vs control implant; for number of enlarged duct ends (mean ± S.E.M.) per implanted mammary gland: 3 days E + P
Procedure: Ten-week old BALB/c virgin mice from our own colony were bilaterally ovariectomized 1 or 5 weeks (wks) before hormone treatment. All mice received sc daily injections of 1 μg 17b-estradiol (E)+1 mg progesterone (P) as a suspension in 0.04% gum arabic in 0.85% NaCl; control groups received vehicle only. The E+P dosage was determined from previous studies on mouse mammary gland (Magnusson, C., et al., Int J Cancer 81:339-344 (1999); and Beral V., et al., Lancet 350:1047-1059 (1997)) on the basis that it produced modest sidebranching and alveolar bud development ([…]., Endocrinology 122:464-470 (1998)), and resembled the normal breast tissue of postmenopausal women who had received […]., et al., J Clin Endocrinol Metab 84:4559-4565 (1999)). […] The effects of the implants on the mammary gland were quantified morphometrically by capturing a digitized microscopic image of the mammary gland wholemount at 10× magnification using NIH/Image One software. The numbers and size of duct ends were measured within a 2 cm radius of the implant. Duct ends were considered to be enlarged if they were 1.0 mm or greater in diameter at the 10× magnification.

[9] = 24 hr after E injection, 5 wk post OVX

SMILES: C[C@]12CC[C@@H]3c4ccc(O)cc4CC[C@H]3[C@@H]1CC[C@@H]2O [E, 17β-estradiol]
- number of daily E injections until PR levels increased above control ([1]; 5 wk post OVX): 7 daily E injections
- increase in PR levels ([1]; 1 wk post OVX): 2.5 fold and 2 fold
- increase in PR levels ([1]; 5 wk post OVX): failed to increase PR levels
- increase in PR concentration per cell ([2]; 1 wk post OVX E-treated mammary glands): 2 fold
- numbers of PR positive cells or amount of PR per cell ([2]; 5 wk post OVX E-treated glands): no significant increase
- dose for maximal proliferative response ([3]; MCF-7 cells deprived of estrogen for 1-6 months): 10^−14 M
- dose for maximal proliferative response ([3]; MCF-7 cells, not estrogen-deprived): 10^−10 M
- concentration at 24 h [4]: 0.031 ± 0.0078 ng/mL
- increase in PR in mammary gland ([5]; 12, 24 and 36 h after E injection, 5 wk post OVX): No increase
- increase in PR binding in mammary gland ([5]; 24 hr after E injection, 1 wk post OVX): 2.5 fold
- increase in PR binding in mammary gland [5, 9]: failed to increase; also recorded: no significant increase
- increase in PR in uteri [5, 9]: 8 fold
- percentage of mammary glands exhibiting stimulation of duct ends ([6]; 5 wk post OVX, after E treatment (single ip 1 μg, 4 days later)): 100%
- extent of stimulatory response to E as a function of time after ovariectomy ([6]; 9-12 month old mice, OVX 1, 3 or 5 weeks prior to E): identical to that obtained in 10-week-old mice
- effect on mammary gland morphology ([6]; E treatment at 1 wk post OVX): no effect on morphology
- effect on mammary gland morphology ([6]; E treatment at 5 wk post OVX (late postmenopausal)): pronounced enlargement of duct ends; also recorded: produced enlarged duct ends
- time of maximal morphological response after E injection ([6]; mouse, in vivo): 96 h
- morphological and DNA synthesis results ([6]; ovariectomized plus adrenalectomized mice): identical to those obtained with ovariectomy alone
- stimulation of DNA synthesis in stromal cells adjacent to duct ends, 5 wk vs 1 wk post OVX ([7]; 1 μg E, 72 h): 4 fold
- ED 50 of E-induced proliferation ([7]; 1 vs 5 wk post OVX): identical
- DNA synthesis in ducts ([7]; E-treated, 1 and 5 wk post OVX): little or no DNA synthesis
- maximal epithelial proliferative response, 5 wk vs 1 wk post OVX ([7]; after 3 days of daily sc E injection): 2.6 fold
- increased proliferative response in mammary stromal cells ([7]; after long-term OVX (discussion)): 3 fold
- E-induced stimulation of DNA synthesis in duct ends, 5 wk vs 1 wk post OVX ([7]; duct end epithelium, 1 μg E, 72 h): 6.5 fold
- maximum proliferative response, 5 wk vs 1 wk post OVX ([7]; epithelial cells, 72 h): 5.6 fold
- steady state stromal cell proliferation, 5 wk vs 1 wk post OVX ([7]; long-term daily E treatment): 2 fold
- steady state epithelial proliferation, 5 wk vs 1 wk post OVX ([7]; long-term daily E treatment up to 28 days): 2 fold and 2.3 fold
- time of maximal DNA synthesis / proliferative response after E injection ([7]; mammary epithelial and stromal cells): 72 h
- maximum proliferative response, 5 wk vs 1 wk post OVX ([7]; stromal cells, 72 h): 2.5 fold

SMILES: C[C@]12CC[C@@H]3c4ccc(O)cc4C[C@@H](CCCCCCCCC[S+]([O-])CCCC(F)(F)C(F)(F)F)[C@H]3[C@@H]1CC[C@@H]2O (stereo partly shown) [ICI 182,780]
- reduction of number of enlarged duct ends induced by E+P ([8]; 5 wk post OVX): 8 fold
- number of enlarged duct ends (mean ± S.E.M.) per implanted mammary gland ([8]; late postmenopause (5 wk post OVX), 0.1 μg ICI 182,780 implant, n = 8): 1.0 ± 1.0

SMILES: CC#C[C@]1(O)CC[C@H]2[C@@H]3CCC4=CC(=O)CCC4=C3[C@@H](c3ccc(N(C)C)cc3)C[C@@]21C [RU486]
- reduction of number of enlarged duct ends induced by E+P ([8]; 1 wk post OVX): 9 fold
- number of enlarged duct ends (mean ± S.E.M.) per implanted mammary gland ([8]; early postmenopause (1 wk post OVX), 0.1 μg RU486 implant): 0.75 ± 0.25
- number of enlarged duct ends (mean ± S.E.M.) per implanted mammary gland ([8]; late postmenopause (5 wk post OVX), 0.1 μg RU486 implant): 9.0 ± 1.0
